According to patent publication US20040127475A1, “Apparatus and method for delivering compounds to a living organism” (Estrogen Vascular Technology, LLC, priority 1999, published 2004):

System: porcine coronary arteries
Test: 17B-estradiol eluting stents in the pig model of instent restenosis, histomorphometric analysis at 30 days
Format: in vivo
Conditions: pre-clinical work, same stent, dose and loading process as Example 3
Source text: In another example, low and high dose 17B-estradiol eluting stents were compared with control stents in a randomized fashion in 18 porcine coronary arteries. Each artery of six pigs were randomly stented with either a control, low-dose or high-dose 17-estradiol eluting stent. All animals were sacrificed at 30 days for histomorphometric analysis.
The experiment and animal care conformed to National Institutes of Health and American Heart Association guidelines for the care and use of animals and were approved by the Institutional Animal Care and Use Committee at the Washington Hospital Center. Six domestic juvenile swine weighing 35-45 kg were used. […] Heart rate, blood pressure and electrocardiography were monitored throughout the procedure. […]
Coronary angiography was performed after intracoronary nitroglycerin (200 μg) administration and recorded on cine film (Phillips Cardiodiagnost; Shelton, Conn.). […]
The histopathologist was blinded to the stent types in each artery. […] The vessel injury score was determined by the method described by Kornowski et al. The scoring of endothelialization is based on percent of intimal surface covered by endothelial cells. […]
Data (mean±standard deviation) were analyzed to determine differences between treatment groups using an ANOVA with a post-hoc Bonferroni analysis. […]

Question: Which “reduction in in-stent neo-intimal formation” value does the source give for `C[C@]12CC[C@@H]3c4ccc(O)cc4CC[C@H]3[C@@H]1CC[C@@H]2O` [17β-estradiol, 17β-Estradiol] here?
Answer: 40%
